Laboratory results as given in the supplement of paper PMC11997997.

Tests used:
[1] = system: Mycobacterium tuberculosis CDC1551 (intracellular, in murine BMDM); test: area under intracellular growth-inhibition dose-response curve (AUC (% inhibition x dose, relative)); higher = more potent; details: duration: 6 days; dose range: 0.13-80 uM, 8 points
Method in brief: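 Macrophages derived from primary murine bone marrow were infected for 1 h at multiplicity of infection 1 with luciferase-expressing M. tuberculosis CDC1551, then treated for 6 days at final concentrations of 80–0.13 μM. Bright-Glo luciferin signal, normalised to a reference drug control and the lowest-concentration wells, gave the growth readout. Area under the growth-inhibition dose–response curve was then calculated in GraphPad Prism.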

[2] = system: murine bone marrow-derived macrophages; test: area under cytotoxicity dose-response curve (AUC (% cytotoxicity x dose, relative)); higher = more cytotoxic; details: duration: 6 days; dose range: 0.13-80 uM, 8 points
Method in brief: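 Primary murine bone marrow-derived macrophages in opaque 384-well plates were exposed to an 8-point, 2.5-fold dilution series (final 80–0.13 μM) for 6 days at 37 °C in 5% CO2. Viability was read with Promega's CellTiter-Glo luminescence assay, and percent cytotoxicity was normalised to vehicle and positive control wells. Cytotoxicity is reported as the area under the dose–response curve, calculated in GraphPad Prism version 10.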

SMILES	area under intracellular growth-inhibition dose-response curve [1]	area under cytotoxicity dose-response curve [2]
CC(NC(=O)Nc1ccc(Br)cc1)C(C)(C)C (stereo unspecified)	228	55.3
COc1cc(-c2cc(C(=O)Nc3ccncc3)c3ccccc3n2)cc(OC)c1OC	32.8	0.318
N=C(NCCCCCCNC(=N)NC(=N)Nc1ccc(Cl)cc1)NC(=N)Nc1ccc(Cl)cc1	89.5	165
O=C(N/N=C/c1ccc2c(c1)OCCO2)c1ccncc1	124	66.5
Cc1ccc2[nH]c(/C(C#N)=C\c3ccc([N+](=O)[O-])o3)nc2c1	8.24	76.5
NC(=S)N/N=C/c1ccc(/C=N/NC(N)=S)cc1	258	20.6
CC1CC(C)CN(C(=O)c2ccc(CNc3c(N4CCCC4)c(=O)c3=O)cc2)C1 (stereo unspecified)	179	166
Cc1ccc(-n2c(C)cc(/C=N/NC(N)=S)c2C)cc1	233	26
Cc1cc(/C=N/NC(N)=S)c(C)n1-c1ccc(Br)cc1	257	< 0
COc1ccc(OCC(=O)NC(=S)Nc2ccc(N3CCOCC3)c(Cl)c2)cc1	173	123
Cc1cc(C)c2cc(C(=O)Nc3ccc(C)c(F)c3)[nH]c2c1	214	< 0
Cc1cc(Br)cnc1NC(=S)Nc1ccc(F)cc1F	247	33.7
NC(=S)N/N=C1\CCOc2ccc(Cl)cc21	179	31.5
Cc1ccccc1CNC(=O)c1ccccc1	213	38.3
CC(C)(C)C(=O)/C(=C/c1cccc([N+](=O)[O-])c1)n1cncn1	8.55	157
NC(=S)N/N=C/c1cccc(Br)c1	270	35
CC(NC(=O)c1cccc(Cl)c1)C1CC2CCC1C2 (stereo unspecified)	225	48.5
CCOc1ccc2oc(C(=O)OCC(=O)N3C(C)CCCC3C)c(C)c2c1 (stereo unspecified)	5.04	105
Cc1cccc(N2CCN(Cc3ccc([N+](=O)[O-])o3)CC2)c1C	221	38.8
CCOc1ccccc1NC(=O)c1ccc2[nH]c(C)c(C)c2c1	192	6.53
O=C(c1ccc([N+](=O)[O-])o1)N1CCN(c2nc3c(Cl)cccc3s2)CC1	18.1	124
O=C(NCc1ccc2c(c1)OCO2)c1cccc(F)c1	222	< 0
Cc1cc(OCC(=O)NNC(=O)c2ccncc2)ccc1C(C)C	259	34.5
O=C(NCc1ccc(F)cc1)c1ccc(Br)o1	228	42.3

SMILES	area under intracellular growth-inhibition dose-response curve [1]	area under cytotoxicity dose-response curve [2]
CCCc1cc(C(=O)NCc2cccs2)no1	192	< 0
CC(=O)Nc1ccc(/C(C)=N/NC(=O)c2ccncc2)cc1	250	0.755
CC[n+]1c(/C=C/N(C)c2ccccc2)n(-c2ccccc2)c2ccc(-c3nc4ccccc4s3)cc21.[I-]	162	146
CCN1/C(=C/c2ccc3cc(C)ccc3[n+]2CC)Sc2ccccc21.[I-]	144	176
CCCn1c(-c2cccs2)nc2ccccc21	103	< 0
COc1ccc(NC(=S)Nc2ccc(N)c([N+](=O)[O-])c2)cc1	167	5.13
Cc1c(Cc2ccccc2)c(NCCCO)n2c(nc3ccccc32)c1C#N	148	< 0
O=C(c1ccc2ccccc2c1)N1CCCC1	222	32.9
Cc1ccc(C(=O)Sc2cccccc2=O)cc1	< 0	143
CCCC(=O)NC(=S)Nc1ccc(N2CCN(C(=O)c3cccs3)CC2)cc1	274	< 0
CC(=NNC(=O)c1ccncc1)c1cccc(Br)c1	234	< 0
Cc1ccc(S(=O)(=O)Nc2c(C)n(C)n(-c3ccccc3)c2=O)cc1C(=O)OC(C)C(=O)c1ccccc1 (stereo unspecified)	17	6.34
CC1CCN(C(=O)COc2ccccc2F)CC1	214	50.5
O=C(NC1CCCCCCC1)c1ccco1	234	3.98
O=C(/C=C/c1ccccc1Cl)NCc1ccco1	174	79.7
CC1CCN(c2ccc(NC(=O)c3ccc([N+](=O)[O-])o3)cc2)CC1.Cl	56.1	90.4
N#C/C(=N/Nc1ccc(OC(F)(F)F)cc1)C(N)=S	62.6	90
C/C(CC(=O)Nc1ccc(N(C)C)cc1)=N\NC(=O)c1ccncc1	219	20.2
CN(C)[C@@H]1C(=O)C(C(N)=O)=C(O)[C@@]2(O)C(O)=C3C(=O)c4c(O)cccc4[C@@](C)(O)C3[C@H](O)C12.Cl (stereo partly specified)	271	62.5
COc1ccc(NS(=O)(=O)c2ccc(N3CCOCC3)c(N)c2)cc1	34.5	< 0
O=C(COc1ccc(/C=N/NC(=O)c2ccncc2)cc1)Nc1ccccc1	266	34.4
CC(C)(C)C(=O)/C=C/Nc1ccccc1O	88	5.21
O=C(NCCc1c[nH]c2ccccc12)c1cc([N+](=O)[O-])cc([N+](=O)[O-])c1	257	< 0
CCN(CC)CCOC(=O)c1ccc(N/C=C(/C#N)c2nc(-c3ccc(OC)c(OC)c3)cs2)cc1	90.7	36.6
